Values joined by “and” are separate entries in the source; they are usually repeats but may differ in a detail not shown here. Equal values may be shown once. Where a SMILES comes first, the peptide text is derived from it. [ ]: non-standard residue; d: D form. pGlu = O=C1CC[C@@H](C(=O)O)N1
Assays:
[1] = tested on: diet-induced obese male mice; assay: Metabolic chamber studies after a single dose (food intake, RER, movement, VO2, VCO2); assay type: in vivo, mouse; conditions: single dose 50 mg/kg intraperitoneal
Experimental: Fig. 5 Functional studies of […] in feeding and energy balance in mice. a Schematic of the primary amino acid sequence for full-length mouse GDF15 preproprotein and annotation of CAP-GDF15 sequence as well as the canonical GDF15 hormone sequence. b–d Food intake (b), respiratory exchange ratio (RER, c), and ambulatory activity (d) of 12–16-week diet-induced obese male mice following a single treatment of CAP-GDF15 (50 mg/kg, intraperitoneal) or vehicle control. e–g Food intake (e), RER (f), and ambulatory activity (g) of 12–16-week diet-induced obese male mice following a single treatment of scrambled CAP-GDF15 (50 mg/kg, intraperitoneal, scrambled sequence: pGlu-[…]-NH2) or vehicle control. h, i 3-day food intake (h) and body weight (i) of 12–16-week diet-induced obese male mice following treatment with CAP-GDF15 or scrambled CAP-GDF15 (50 mg/kg/day, IP), or vehicle control. […] For (b-i), p values were calculated by two-way ANOVA. Source data are provided as a Source Data file.
Animal experiments were performed according to a procedure approved by the Stanford University Administrative Panel on Laboratory Animal Care. Mice were maintained in 12-h light-dark cycles at 22 °C and about 50% relative humidity and fed a standard irradiated rodent diet. Where indicated, a high-fat diet (D12492, Research Diets 60% kcal from fat) was used. Male C57BL/6 J (stock number 000664) and male C57BL/6 J DIO mice were purchased from the Jackson Laboratory (stock number 380050). For studies in high-fat diet-fed mice, peptides were dissolved in 18:1:1 (by volume) of saline:Kolliphor EL (Sigma Aldrich):DMSO and administered to mice by intraperitoneal injections at a volume of 10 µl/g at the indicated doses for the indicated times. For lipopolysacchardide injection, LPS (Sigma, #L2880-10MG) was dissolved in saline and administered to mice at a volume of 5 µl/g at indicated dose. For fasting, food was removed from mice for 16 h. For running, a six-lane Columbus Instruments animal treadmill (product 1055-SRM-D65) was used with following 1 h protocol: 10 min at 6 m/min, 50 min at 18 m/min, and increase every 2 min by 2 m/min for the last 10 minutes, all at 12° incline. For all treatment experiments, mice were mock injected with the vehicle for 3–5 days until body weights were stabilized. Heparin plasma was harvested by submandibular bleed. For all experiments, mice were randomly assigned to treatment groups. Experimenters were not blinded to groups.
For acute energy expenditure studies, food intake, RER, movement, VO2, and VCO2 were collected with CLAMS Oxymax Metabolic Cages. Mice were placed in individual metabolic cages for 24 hours prior to experiment. Mice were injected with either vehicle, 50 mg/kg CAP-GDF15, 50 mg/kg uncapped CAP-GDF15, or 50 mg/kg scrambled CAP-GDF15 at 5 pm at T = 0. […] All experiments were done with 3–5 month old DIO mice (Jackson, stock 380050), fed high-fat diet ad libitum.
(§1) Supplementary Figure 5. Additional measurements from metabolic chambers of mice treated with CAP-GDF15. a CAP-GDF15 plasma concentration after administration of CAP-GDF15 (50 mg/kg, intraperitoneal) or vehicle control. b-c VO2 (b) and VCO2 (c) of 12-16-week diet-induced obese male mice following a single treatment of CAP-GDF15 (50 mg/kg, intraperitoneal) or vehicle control. d-e VO2 (d) and VCO2 (e) of 12-16-week diet-induced obese male mice following a single treatment of scrambled CAP-GDF15 (50 mg/kg, intraperitoneal, scrambled sequence: p[…]-NH2) or vehicle control. f Acute food intake of 12-16-week diet-induced obese male mice following a single treatment of CAP-GDF15 (50 mg/kg, intraperitoneal), uncapped CAP-GDF15 (50 mg/kg, intraperitoneal), or vehicle control. For (a), N=3/group; (b-c), N=12/group; for (d-e), N=8/group; for (f), N=5/group.
(§2) For (a-f), injection occurred at time T=0 (5:00pm). Data are shown as means ± SEM. For (b-i), p values were calculated by two-way ANOVA. Source data are provided as a Source Data

[2] = CAP-GDF15 plasma concentration after administration; assay type: in vivo, mouse; conditions: for Plasma concentration after administration (Supplementary Figure 5a): 50 mg/kg, unit not given
Experimental: To test this possibility, we administered a single dose of CAP-GDF15 (50 mg/kg, intraperitoneally) to diet-induced obese mice and measured whole body parameters of energy balance in metabolic chambers. At this dose, concentrations of plasma CAP-GDF15 rose by 5-fold from baseline at 30 min post-administration (Supplementary Fig. 5A). […] A corresponding and expected suppression of respiratory exchange ratio (RER) was also observed (Fig. 5c).
as §1, §2

[3] = diet-induced obese male mice, N = 12/group

CC(C)C[C@H](NC(=O)[C@@H]1CCC(=O)N1)C(=O)N[C@@H](CCC(=O)O)C(=O)N[C@@H](CC(C)C)C(=O)N[C@@H](CCCNC(=N)N)C(=O)N[C@@H](CC(C)C)C(=O)N[C@@H](CCCNC(=N)N)C(=O)N[C@H](C(=O)N[C@@H](C)C(=O)N[C@@H](C)C(=O)NCC(=O)N[C@@H](CCCNC(=N)N)C(N)=O)C(C)C [CAP-GDF15] ([pGlu]LELRLRVAAGR-NH2)
suppression of food intake compared to vehicle-treated mice ([1]; 12–16-week diet-induced obese male mice, 16 h after injection, N = 12 mice/group): ~ 60% | effect on carbon dioxide production (VCO2) [1, 3]: did not alter | effect on oxygen consumption (VO2) [1, 3]: did not alter | effect on movement (ambulatory activity) ([1]; diet-induced obese male mice, N = 12 mice/group): did not alter | effect on respiratory exchange ratio (RER) ([1]; diet-induced obese male mice, metabolic chambers): suppression | rise of plasma CAP-GDF15 concentration from baseline ([2]; 50 mg/kg intraperitoneal, 30 min post-administration, N = 3/group): ~ 5 fold and 5 fold | Plasma concentration after administration (Supplementary Figure 5a) ([2]; 0 minutes (same values as vehicle), animal 1): 2.565 | Plasma concentration after administration (Supplementary Figure 5a) ([2]; 0 minutes (same values as vehicle), animal 2): 0.7876 | Plasma concentration after administration (Supplementary Figure 5a) ([2]; 0 minutes (same values as vehicle), animal 3): 0.4564 | Plasma concentration after administration (Supplementary Figure 5a) ([2]; 10 minutes, animal 1): 3.639 | Plasma concentration after administration (Supplementary Figure 5a) ([2]; 10 minutes, animal 2): 4.514 | Plasma concentration after administration (Supplementary Figure 5a) ([2]; 10 minutes, animal 3): 3.221 | Plasma concentration after administration (Supplementary Figure 5a) ([2]; 30 minutes, animal 1): 2.641 | Plasma concentration after administration (Supplementary Figure 5a) ([2]; 30 minutes, animal 2): 3.3984 | Plasma concentration after administration (Supplementary Figure 5a) ([2]; 30 minutes, animal 3): 2.342 | Plasma concentration after administration (Supplementary Figure 5a) ([2]; 60 minutes, animal 1): 0.6432 | Plasma concentration after administration (Supplementary Figure 5a) ([2]; 60 minutes, animal 2): 0.7838 | Plasma concentration after administration (Supplementary Figure 5a) ([2]; 60 minutes, animal 3): 0.7186 | Cmax ([2]; mouse, plasma, ip, 50 mg/kg intraperitoneal, from approximately 1 nM endogenous level, read-out: maximum plasma concentration after dosing, as read from the figure by a reviewer): 4 nM

Reference: paper PMC10709327, “A class of secreted mammalian peptides with potential to expand cell-cell communication” (Nature Communications, 2023)
